Measured values as given in publication PMC3426641 (Biochemistry, 2012).
Where two headings read alike, the source gives them in different places.

What was measured:
Eis_Mtb [1] = molecular target: T1, Eis_Mtb (Mycobacterium tuberculosis, UniProt P9WFK7); assay: biochemical
Eis_Msm [2] = molecular target: T2, Eis_Msm (Mycobacterium smegmatis, UniProt A0QY29); assay: Number of acetylations of AGs by Eis_Msm; format: biochemical; conditions: number of acetylations per AG; UV-Vis assay and LCMS, 25 °C, pH 8.0
Eis_Msm [3] = molecular target: T2, Eis_Msm; assay: biochemical
Eis_Msm [4] = molecular target: T2, Eis_Msm
[5] = system: NCC[C@H](O)C(=O)N[C@@H]1C[C@H](N)[C@@H](O[C@H]2O[C@H](CN)[C@@H](O)[C@H](O)[C@H]2O)[C@H](O)[C@H]1O[C@H]1O[C@H](CO)[C@@H](O)[C@H](N)[C@H]1O; assay: purified protein, by the assay type; conditions: pH 8.0
[6] = system: NC[C@H]1O[C@H](O[C@H]2[C@H](O)[C@@H](O[C@H]3O[C@H](CO)[C@@H](O)[C@H](N)[C@H]3O)[C@H](N)C[C@@H]2N)[C@H](N)C[C@@H]1O; assay: purified protein, by the assay type; conditions: pH 8.0
[7] = system: NC[C@H]1O[C@H](O[C@H]2[C@H](O)[C@@H](O)[C@H](N)C[C@@H]2N)[C@H](N)[C@@H](O)[C@@H]1O; assay: purified protein, by the assay type; conditions: pH 8.0
Eis_Mtb [8] = molecular target: T1, Eis_Mtb
Eis_Msm [9] = molecular target: T2, Eis_Msm; assay: Inhibition of Eis_Msm NEO acetylation; format: biochemical; conditions: for mode of inhibition: Eis_Msm, against NEO
Eis_Mtb [10] = molecular target: T1, Eis_Mtb; assay: Inhibition of Eis_Mtb NEO acetylation; format: biochemical
[11] = system: CN[C@@H]1[C@@H](O)[C@@H](O[C@@H]2[C@@H](O)[C@H](O[C@H]3OC(CN)=CC[C@H]3N)[C@@H](N)C[C@H]2N)OC[C@]1(C)O; assay: purified protein, by the assay type; conditions: other: Eis_Msm, pH 8.0
[12] = system: NC[C@@H]1O[C@H](O[C@H]2[C@@H](O)[C@H](O[C@@H]3[C@@H](O)[C@H](N)C[C@H](N)[C@H]3O[C@H]3O[C@H](CN)[C@@H](O)[C@H](O)[C@H]3N)O[C@@H]2CO)[C@H](N)[C@@H](O)[C@@H]1O; assay: purified protein, by the assay type; conditions: other: Eis_Msm, pH 8.0
[13] = system: CCN[C@@H]1C[C@H](N)[C@@H](O[C@H]2OC(CN)=CC[C@H]2N)[C@H](O)[C@H]1O[C@H]1OC[C@](C)(O)[C@H](NC)[C@H]1O; assay: purified protein, by the assay type; conditions: other: Eis_Msm, pH 8.0
[14] = system: NC[C@@H]1O[C@H](O[C@H]2[C@@H](O)[C@H](O[C@@H]3[C@@H](O)[C@H](N)C[C@H](N)[C@H]3O[C@H]3O[C@H](CO)[C@@H](O)[C@H](O)[C@H]3N)O[C@@H]2CO)[C@H](N)[C@@H](O)[C@@H]1O; assay: purified protein, by the assay type; conditions: other: Eis_Msm, fixed AcCoA 0.1 mM, varying AG, 25 °C, pH 8.0
[15] = Eis_Msm, fixed AG 0.5 mM, varying AcCoA, 25 °C, pH 8.0
[16] = fixed AcCoA 0.1 mM, varying AG, 25 °C
[17] = random sequential mechanism, 25.0 °C
[18] = other: Eis_Msm, fixed AcCoA 0.1 mM, varying AG, 25 °C

T1 sequence (P9WFK7 whole entry): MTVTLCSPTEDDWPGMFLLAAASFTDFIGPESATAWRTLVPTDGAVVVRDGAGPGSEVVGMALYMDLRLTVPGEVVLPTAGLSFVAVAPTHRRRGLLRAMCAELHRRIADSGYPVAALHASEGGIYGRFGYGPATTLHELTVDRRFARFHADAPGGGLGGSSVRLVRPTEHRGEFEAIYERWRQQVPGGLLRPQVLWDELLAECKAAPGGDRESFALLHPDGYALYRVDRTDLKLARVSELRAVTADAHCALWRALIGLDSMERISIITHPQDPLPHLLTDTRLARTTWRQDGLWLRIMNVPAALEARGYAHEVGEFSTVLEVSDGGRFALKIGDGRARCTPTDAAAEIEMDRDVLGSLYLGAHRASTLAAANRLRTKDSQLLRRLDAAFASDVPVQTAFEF

For `NC[C@H]1O[C@H](O[C@H]2[C@H](O)[C@@H](O)[C@H](N)C[C@@H]2N)[C@H](N)[C@@H](O)[C@@H]1O` [NEA, neamine], the Kd (Eis_Mtb [1]) was 95 ± 50 µM, the “level of acetylation by Eis from M. smegmatis” value (“level of acetylation by Eis” below) (Eis_Msm [2]) was “tri-acetylated” and the Kd (Eis_Msm [3]) was 141 ± 60 µM.

In the case of `NCC[C@H](O)C(=O)N[C@@H]1C[C@H](N)[C@@H](O[C@H]2O[C@H](CN)[C@@H](O)[C@H](O)[C@H]2O)[C@H](O)[C@H]1O[C@H]1O[C@H](CO)[C@@H](O)[C@H](N)[C@H]1O` [AMK, amikacin], the Kd (Eis_Mtb [1]) is reported as 32 ± 14 µM, the “level of acetylation by Eis” value (Eis_Msm [2]) is reported as “tri-acetylated” and the “kcat,AcCoA” value (Eis_Msm [4]; [15]) is reported as 0.142 ± 0.026 s⁻¹. It also gave a Kd (Eis_Msm [3]) of over 1000 µM.

With `CCN[C@@H]1C[C@H](N)[C@@H](O[C@H]2OC(CN)=CC[C@H]2N)[C@H](O)[C@H]1O[C@H]1OC[C@](C)(O)[C@H](NC)[C@H]1O` [NET, netilmicin] the Kd (Eis_Mtb [1]) was 31 ± 10 µM, the “level of acetylation by Eis” value (Eis_Msm [2]) was “di-acetylated” and the “kcat,AcCoA” value (Eis_Msm [4]; [15]) was 0.819 ± 0.121 s⁻¹. The Kd (Eis_Msm [3]) was 108 ± 35 µM.

With `CC(=O)SCCNC(=O)CCNC(=O)[C@H](O)C(C)(C)COP(=O)(O)OP(=O)(O)OC[C@H]1O[C@@H](n2cnc3c(N)ncnc32)[C@H](O)[C@@H]1OP(=O)(O)O` [AcCoA, acetyl-coenzyme A] the “Kd,AcCoA(E) fold smaller than Kd,AcCoA(E•AG)” value (Eis_Msm [4]; Eis_Msm, AG = KAN) was “approximately 17 fold”.

With `CN[C@@H]1C[C@H](N)[C@@H](O)[C@H](O[C@H]2O[C@H](CO)[C@H](O)[C@@H]3O[C@@]4(O[C@@H]23)O[C@H]([C@H](N)CO)[C@H](O)[C@H](O)[C@H]4O)[C@H]1O` [HYG, hygromycin] the “level of acetylation by Eis” value (Eis_Msm [2]) was “mono-acetylated”.

With `[H]/N=C(/N)N[C@H]1[C@H](O)[C@@H](O)[C@H](O[C@@H]2O[C@@H](C)[C@](O)(C=O)[C@H]2O[C@@H]2O[C@@H](CO)[C@H](O)[C@@H](O)[C@@H]2NC)[C@@H](N/C(N)=N\[H])[C@@H]1O` [STR, streptomycin] the “level of acetylation by Eis” value (Eis_Msm [2]) was “not modified”.

In the case of `NC[C@H]1O[C@H](O[C@H]2[C@H](O[C@@H]3O[C@H](CO)[C@@H](O)[C@H]3O)[C@@H](O)[C@H](N)C[C@@H]2N)[C@H](N)[C@@H](O)[C@@H]1O` [RIB, ribostamycin], the “level of acetylation by Eis” value (Eis_Msm [2]) is reported as “tri-acetylated”.

“Eis_Mtb (Mycobacterium tuberculosis H37Rv)” gave a Km ([5]; 25.0 °C) of 113 ± 35 µM, a kcat ([5]; 25.0 °C) of 0.03 ± 0.004 s⁻¹ and a Km ([6]; 25.0 °C) of 116 ± 17 µM. The kcat ([6]; 25.0 °C) was 0.21 ± 0.01 s⁻¹, the Km ([7]; 25.0 °C) was 137 ± 57 µM and the kcat ([7]; 25.0 °C) was 0.064 ± 0.01 s⁻¹.

kanamycin A was tested, and the “kcat (microscopic rate constant of acetylation)” value (Eis_Mtb [8]) was 0.16 ± 0.07 s⁻¹, the “kcat,AcCoA” value (Eis_Mtb [8]) was 0.094 ± 0.004 s⁻¹ and the “level of acetylation by Eis” value (Eis_Msm [2]) was “di-acetylated”. For the same compound, the “kcat,AcCoA” value (Eis_Msm [4]; [15]) was 0.398 ± 0.060 s⁻¹ and the “kcat,AG” value (Eis_Msm [4]; Eis_Msm, fixed AcCoA 0.1 mM, varying AG, 25 °C, pH 8.0) was 0.108 ± 0.005 s⁻¹.

`[H]/N=C(\N/C(=N/[H])NCCCCCCNC(=N)NC(=N)Nc1ccc(Cl)cc1)Nc1ccc(Cl)cc1` [chlorhexidine (1), chlorhexidine] was tested, and the IC50 (Eis_Msm [9]) was 1.85 µM, the Ki (Eis_Msm [9]) was 0.47 ± 0.15 µM and the mode of inhibition (Eis_Msm [9]; listed as 1) was “AG-competitive mode”. For the same compound, the mode of inhibition (Eis_Msm [9]; listed as Chlorhexidine (1)) was “competitive inhibitor of NEO” and the Ki (Eis_Mtb [10]) was 0.105 ± 0.024 µM.

With `NC[C@H]1O[C@H](O[C@H]2[C@H](O)[C@@H](O[C@H]3O[C@H](CO)[C@@H](O)[C@H](N)[C@H]3O)[C@H](N)C[C@@H]2N)[C@H](N)C[C@@H]1O` [TOB, tobramycin] the “level of acetylation by Eis” value (Eis_Msm [2]) was “tetra-acetylated”.

With `NC[C@@H]1O[C@H](O[C@H]2[C@@H](O)[C@H](O[C@@H]3[C@@H](O)[C@H](N)C[C@H](N)[C@H]3O[C@H]3O[C@H](CO)[C@@H](O)[C@H](O)[C@H]3N)O[C@@H]2CO)[C@H](N)[C@@H](O)[C@@H]1O` [PAR, paromomycin] the “kcat,AG” value (Eis_Mtb [8]) was 0.15 ± 0.01 s⁻¹, the Km (Eis_Mtb [8]; read-out: Km,AG) was 96 ± 20 µM and the “level of acetylation by Eis” value (Eis_Msm [2]) was “tri-acetylated”.

In the case of “Eis_Msm (Mycolicibacterium smegmatis MC2 155)”, the Km [11, 16] is reported as 82 ± 8 µM, the kcat [11, 16] is reported as 0.206 ± 0.006 s⁻¹ and the kcat [11, 17] is reported as 0.85 ± 0.25 s⁻¹. The Km [5, 18] was 251 ± 55 µM, the kcat ([5]; other: Eis_Msm, random sequential mechanism, 25.0 °C) was over 0.3 s⁻¹ and the Km [12, 16] was 314 ± 77 µM. For the same compound, the kcat [12, 17] was over 1 s⁻¹, the Km [6, 18] was 131 ± 22 µM and the kcat [6, 18] was 0.267 ± 0.016 s⁻¹. It also gave a Km [13, 16] of 197 ± 30 µM, a kcat [13, 16] of 0.835 ± 0.057 s⁻¹ and a kcat [13, 17] of 1 ± 0.4 s⁻¹. The Km [7, 18] was 359 ± 101 µM, the kcat [7, 18] was 0.176 ± 0.027 s⁻¹ and the Km [14] was 153 ± 55 µM. For the same compound, the kcat [14] was 0.035 ± 0.006 s⁻¹.

With `NC[C@@H]1O[C@H](O[C@H]2[C@@H](O)[C@H](O[C@@H]3[C@@H](O)[C@H](N)C[C@H](N)[C@H]3O[C@H]3O[C@H](CN)[C@@H](O)[C@H](O)[C@H]3N)O[C@@H]2CO)[C@H](N)[C@@H](O)[C@@H]1O` [NEO, neomycin B] the Kd (Eis_Mtb [1]) was 75 ± 41 µM, the “level of acetylation by Eis” value (Eis_Msm [2]) was “tri-acetylated” and the “kcat,AcCoA” value (Eis_Msm [4]; 25 °C, pH 8.0) was 0.546 ± 0.065 s⁻¹. For the same compound, the Kd (Eis_Msm [3]) was over 1000 µM.

`CN[C@@H]1[C@@H](O[C@H]2O[C@H](CO)[C@@H](N)[C@H](O)[C@H]2O)OC2C[C@@H](N)[C@@H](O[C@H]3[C@H](O)[C@@H](O)[C@H](N)C[C@@H]3N)OC2[C@@H]1O` (stereo partly shown) [APR, apramycin] was tested, and the “level of acetylation by Eis” value (Eis_Msm [2]) was “di-acetylated”.

For `CN[C@@H]1[C@@H](O)[C@@H](O[C@@H]2[C@@H](O)[C@H](O[C@H]3OC(CN)=CC[C@H]3N)[C@@H](N)C[C@H]2N)OC[C@]1(C)O` [SIS, sisomicin], the Kd (Eis_Mtb [1]) was 340 ± 140 µM, the “level of acetylation by Eis” value (Eis_Msm [2]) was “tri-acetylated” and the “kcat,AcCoA” value (Eis_Msm [4]; 25 °C, pH 8.0) was 0.620 ± 0.063 s⁻¹. It also gave a Kd (Eis_Msm [3]) of 179 ± 54 µM.

For `CN[C@@H]1[C@H](O)[C@H](NC)[C@H]2O[C@@]3(O)C(=O)C[C@@H](C)O[C@H]3O[C@@H]2[C@H]1O` [SPT, spectinomycin], the “level of acetylation by Eis” value (Eis_Msm [2]) was “not modified”.
